Source: publication PMC5310970 (Journal of photochemistry and photobiology. B, Biology, 2016)

Target: Prostate-specific membrane antigen (PSMA) (Homo sapiens, UniProt Q04609)
Assay: fluorescence-based NAALADase inhibition assay
Type: biochemical

Sequence of Prostate-specific membrane antigen (PSMA) (Q04609 whole entry): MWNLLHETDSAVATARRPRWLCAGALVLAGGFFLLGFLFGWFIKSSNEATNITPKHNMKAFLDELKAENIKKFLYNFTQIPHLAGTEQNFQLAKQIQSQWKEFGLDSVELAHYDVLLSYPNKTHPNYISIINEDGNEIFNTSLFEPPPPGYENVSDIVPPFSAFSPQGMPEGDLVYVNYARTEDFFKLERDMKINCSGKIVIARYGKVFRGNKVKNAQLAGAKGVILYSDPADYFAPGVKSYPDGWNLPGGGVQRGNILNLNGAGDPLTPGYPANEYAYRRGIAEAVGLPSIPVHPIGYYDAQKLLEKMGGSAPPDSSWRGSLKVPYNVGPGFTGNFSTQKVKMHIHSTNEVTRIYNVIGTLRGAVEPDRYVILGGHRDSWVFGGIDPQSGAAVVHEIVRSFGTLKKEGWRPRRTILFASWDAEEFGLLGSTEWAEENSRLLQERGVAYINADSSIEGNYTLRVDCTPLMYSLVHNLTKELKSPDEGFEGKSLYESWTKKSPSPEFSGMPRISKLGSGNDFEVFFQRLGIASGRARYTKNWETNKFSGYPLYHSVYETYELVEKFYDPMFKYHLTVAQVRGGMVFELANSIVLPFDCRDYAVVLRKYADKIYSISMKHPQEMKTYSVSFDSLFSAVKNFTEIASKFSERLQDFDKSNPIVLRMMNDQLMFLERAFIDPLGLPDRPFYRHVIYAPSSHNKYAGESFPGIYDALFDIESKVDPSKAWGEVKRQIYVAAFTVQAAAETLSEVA

YC-9
Ki: 200 pM
